Assays:
PLA2 = settings: coinjection with PLA2; cited from earlier work
phospholipase A2 (PLA2) = settings: cited from earlier work
C6 [1] = test: TUNEL labeling in C6; type: cell-based, rat; settings: C6, 24 hours
Experimental: C6 were plated on glass coverslips. Cells were fixed and stained accordingly to manufacturer instructions. Propidium staining of the nuclei was replaced by Hoechst included in the mounting media. Several images were acquired with a high resolution camera on a microscope equipped with a 10× long working distance dry lens and analyzed with powerful commercial software. Results were expressed in the graph as green labeled pixel counts. The images from the top to the bottom are respectively from N.T., DMSO, Thap 20 nM, Thap 200 nM, STS100 nM. The blue images reflect nuclear staining while the images on the right represent BRDU staining.
Thereafter, cells were harvested and protein extracted. Procaspase 12 band at 65 kDa was identified. In some of the treatments, the active product at 45 kDa was also detected. […] Conversely, in C6, higher GRP78 levels and the cell environment reflect significant caspase activation. […] Caspase activation in ERSR conditions was also confirmed with a TUNEL based apoptosis detection system in C6. […] High resolution images of the experiments were acquired and image morphometric analysis was performed to determine quantitative parameters of the staining as previously described (Pascale et al., 2004, “Translocation of protein kinase C-betaII in astrocytes requires organized actin cytoskeleton and is not accompanied by synchronous RACK1 relocation.” Glia 46(2): 169-82). […]

GRP78 promoter = test: GRP78-luc reporter assay in stably transfected U87-MG clone A5; type: cell-based, human; settings: for GRP78 promoter driven luciferase (GRP78-luc) expression: result in words
Experimental: The promoter region contains the sequence of the GRP78 promoter from −139 to +7. In this part of the promoter there are three ER stress responsive elements and the TATA box to which is linked in frame the firefly luciferase sequence.
Compounds were plated in half area 96 well plates at the final concentration of 2 μM in 5 μl of media. Cells were added in 45 μl afterwards at the density of 5000/well. Plates were read after 16 h in an Envision high efficiency plate reader. Results are represented as a plate layout in which different shadings indicate the different rows and the number indicate the different lines. As a standard negative and positive controls were located in the outer columns.
A construct coding a large part of the human GRP78 promoter, attached to the reporter gene firefly luciferase was used (see FIG. 16 for a schematic) (Yoshida et al., 1998).
The promoter region contains the sequence of the GRP78 promoter from −139 to +7. In this part of the promoter there are three ER stress responsive elements and the TATA box to which is linked in frame the firefly luciferase sequence (FIG. 16)(Yoshida et al., 1998). The construct, which was cloned in an expression vector, was transfected into E. Coli, amplified, purified and checked it by enzymatic digestion. Thereafter, C6 and U87-MG were transiently transfected with the plasmid. After 24 hours the cells were challenged with THAP and TUN for 24 hours. Although, in transient transfection only a small part of the cell population expresses the transduced gene, a significant induction by THAP and TUN was detected over 24 hours. Armed with these encouraging data human glioma cells U87-MG were transfected with both the above described construct and a construct carrying resistance to blasticidin. The sensitivity of these cells to the antibiotic has previously been assessed. 24 hours after the transfection the antibiotic at its 75% inhibitory concentration was added. The cells were given time to proliferate. Two pools called P2 and P5 were selected and luciferase expression was assessed. […] Clones from these two pools were isolated. Luciferase expression in the clones was characterized and a clone called A5, in which baseline expression of the construct was reasonably low and induction with two positive controls was large and consistent, was selected. This clone, several back up clones, and the pools were amplified and frozen in sufficient amounts to guarantee continuity in case needed. Next, the effect of the incubation time on luciferase induction was assessed. Since this assay can be affected by false negative due to toxicity of hit compounds, the incubation times were kept as short as possible. Therefore, several incubation times were tested, including 8, 16 and 24 h. The goal was not to incubate longer than 24 hours because toxicity starts to develop at that time point. […] At this time point the induction is about 6-7 fold. Previously, using a different assay, a half a million compound library was screened very easily using 2.5 thousands cells per well in 1536 plates. […] With this cell number the dynamic range is large and the fold of induction of 6-7 is maintained.
It is common practice in the field of high throughput screening to assess the so called z number of the assay. This statistical parameter indicates the suitability of a given assay for high throughput screening. The z-value in a word describes the likelihood of a single point hit not to be false positive. The z value is a number lower than or equal to one. Values above 0.5 indicate a robust assay. Values below 0.5 but above 0 indicate an assay that probably needs to be run in duplicate. Negative values indicate assays whose predictability is very low. Z values are usually determined in a high density format plate usually a 96 well plate in manual conditions or a 384-1536 plate format in automated liquid handling environment. Z value determination has been performed using half area 96 well plates in manual mode. […]

C6 [2] = test: [Ca2+]i measurement in C6; type: cell-based, rat
Source text: (Statistical analysis it is shown in the inset. Values at the peak of the response have been analyzed using ANOVA followed by T-test, ** indicate P<0.01.).
Ca^2+ mobilization from ER was caused using an agonist acting via inositol trisphosphate elevation, mimicking physiological responses. In these conditions the dynamics of Ca^2+ transients were observe in these two cell lines. It appears evident that the plateau phase in C6 is consistently larger than in astrocytes.
Panel A: Challenge of astrocytes with ATP show the unchanged typical spike and plateau response. Panel B: In C6 an oscillatory pattern is readily detectable in response to treatment with TUN.
Tools and protocols have been developed to cleanly observe capacitative Ca^2+ entry (CCE), the phenomenon that allows the replenishment of intracellular Ca^2+ (ICS) stores and make quantitative and qualitative assessments. In particular, in astrocytes, capacitative Ca^2+ entry happens in absence of cytoplasmic Ca^2+ concentration ([Ca^2+]i) elevation (Grimaldi; 2006)(FIG. 1). […] The study was designed to investigate if there was a difference between astrocytes and glial cancer cells in this distinctive homeostatic pattern. The findings presented in this study, indicate that there are striking differences between glial cells and their cancer counterpart. The model utilizes rat cells but the observations extend and apply to human glioma cells as well. When the responses of normal astrocytes and C6 cells to thapsigargin (THAP), an agent able to block SERCA, therefore causing the release of Ca^2+ from the ER, were compared it was evident that C6 was more sensitive to the THAP (FIG. 2). However, the difference can be ascribed to one of many possibilities. […]
This phase is dependent on the balance of Ca^2+ influx triggered by store depletion and the reuptake in the ER due to SERCA activity. […] To investigate the role of influx triggered by ICS depletion, CCE was analyzed following THAP-induced depletion of ICS. […]

glioma cells = test: Gliotoxicity, cell line not stated; type: cell-based; settings: cell line not stated
Source text: Spiperone is a selective D2 dopamine receptor antagonist. This drug is used in the treatment of schizophrenia and other hallucinatory states. […] In an effort to develop Structure-Activity Relationships around the chosen compounds, a search of commercially available compounds that are either close structural analogs of these lead compounds (for example, acridine and quinoline analogs of quinacrine) or are related to these in terms of their pharmacological activity (dopamine receptor antagonists related to spiperone) was performed.

## CCN(CC)CCCC(C)Nc1c2ccc(Cl)cc2nc2ccc(OC)cc12.Cl.Cl (centres unmarked) [quinacrine hydrochloride, 6-chloro-9-((4-(diethylamino)-1-methylbutyl)amino)-2-methoxyacridine dihydrochloride]
PLA2
  reduction of the inflammogenic potency of PLA2: 64%
Phospholipase A2 (PLA2)
  PLA2 inhibition in platelets: phospholipase A2 (PLA2) inhibitor

## CN[C@@H]1C[C@H]2O[C@@](C)([C@@H]1OC)n1c3ccccc3c3c4c(c5c6ccccc6n2c5c31)C(=O)NC4 [staurosporin]
C6 [1]
  TUNEL labeling: clear increase of TUNEL labeling

## O=C(CCCN1CCC2(CC1)C(=O)NCN2c1ccccc1)c1ccc(F)cc1 [spiperone]
GRP78 promoter; 2 μM, 5000 cells/well, read after 16 h
  hit in Prestwick library screening (value above average of negative controls + 3 SD): potentially attractive lead compounds

## Nc1ncnc2c1ncn2[C@@H]1O[C@H](COP(=O)(O)OP(=O)(O)OP(=O)(O)O)[C@@H](O)[C@H]1O [ATP]
C6 [2]
  [Ca2+]i response of C6 to ATP compared with astrocytes: increased elevation of [Ca^2+]i

## Cl.Nc1c2ccccc2nc2ccccc12.O [9-aminoacridine, hydrate, hydrochloride]
Glioma cells
  gliotoxicity: causes gliotoxicity
GRP78 promoter; hydrate, hydrochloride
  GRP78 promoter driven luciferase (GRP78-luc) expression: causes increased expression of the GRP78-luc reporter gene

## CCN(CC)CCCC(C)Nc1c2cc(OC)ccc2nc2cc(Cl)c(N)cc12 (centres unmarked) [OSSL-053454, 3-chloro-N^9-(5-(diethlyamino)pentan-2-yl)-7-methoxy acridine-2,9-diamine]
Glioma cells
  gliotoxicity: causes gliotoxicity similar to that caused by quinacrine
Glioma cells; listed as OSSL 53454
  gliotoxicity: causes gliotoxicity
GRP78 promoter
  GRP78 promoter driven luciferase (GRP78-luc) expression: causes an increase of the GRP78-luc reporter gene similar to the increase caused by quinacrine
GRP78 promoter; listed as OSSL 53454
  GRP78 promoter driven luciferase (GRP78-luc) expression: causes an increase of the GRP78-luc reporter gene as quinacrine

Reference: patent US20110060000A1, “ACRIDINE ANALOGS IN THE TREATMENT OF GLIOMAS” (priority 2009, published 2011)
